By EC50 is commonly meant the concentration that produces a half-maximal response. For orientation: IC50 means the concentration needed to halve the response being measured.

Consider 13 molecules from patent US20250019374A1, “PROTEIN TYROSINE PHOSPHATASE INHIBITORS AND METHODS OF USE THEREOF” (Calico Life Sciences LLC, priority 2021, published 2025).

Where two headings read alike, the source gives them in different places.

In assay [1] the test system is IFNγ-induced STAT1 phosphorylation (pSTAT1) in B16F10 cells. Put plainly: B16F10 Phospho-STAT1 HTRF proximal pharmacodynamic (PD) assay. Format: cell-based, murine. The following applies: for EC50: B16-F10, B16F10 cells; for Dihydrobenzofuran or Indoline x-fold>potency cellular: x-fold versus corresponding chromane comparator, B16F10 pSTAT1. The method, then:
Example III-3: B16F10 (Murine Melanoma Cells) Phospho-STAT1 HTRF Proximal Pharmacodynamic (PD) Assay
B16F10 cells were grown and maintained in high glucose DMEM (Gibco, Catalog^#11965-092, Dun Laoghaire Co Dublin) supplemented with 10% fetal bovine serum (Gibco, Catalog^#10082-139, Dun Laoghaire Co Dublin). The cells were pelleted and resuspended in high glucose DMEM without phenol red (Gibco, Catalog^#11054-020, Dun Laoghaire Co Dublin), supplemented with 10% fetal bovine serum and plated in a 384 well Corning plate (product^#3765, Corning, NY) at 11,000 cells per well in a volume of 20 μL. The cells were dosed with the compounds of interest using an Echo Liquid Handler (Beckman Coulter, Brea, CA) at 50 μM top dose with 3-fold dilutions down to 0.002679 μM for a 10-point dose response. The plate was incubated for 3 hours at 37° C. and subsequently treated with recombinant mouse IFNγ (R&D Systems, Catalog^#485-MI, Minneapolis, MN; 100 nM final concentration) for 10 minutes at 37° C. to induce STAT1 phosphorylation followed by 3.3 μM staurosporine treatment for 1 hour at 37° C. to terminate phosphorylation. Media was then aspirated and 20 μL of 1× lysis buffer/blocking reagent (Cisbio Phospho-STAT1 kit, part^# 63ADK026PEH, Bedford, MA) was added. The plate was placed on a plate shaker for 30 minutes at room temperature, sealed, and stored at −80° C. until needed. To thaw, the plate was placed on shaker at room temperature until completely thawed while the antibody master mix was made (1:40 Phospho-STAT1 Eu Cryptate antibody, 1:40 Phospho-STAT d2 antibody, with the detection buffer; Cisbio Phospho-STAT1 kit, part^#63ADK026PEH, Bedford, MA). The antibody master mix was then dispensed at 4 μL per well into a 384 ProxiPlate Plus (PerkinElmer, part^#6008289, Waltham, MA) and 16 μL of lysate was added from the Corning plate to the Proxiplate using a VIAFLO 384 (INTEGRA). The plate was incubated for 3 hours at room temperature and read on an EnVision® (Perkin Elmer) plate reader with laser excitation at 335 nm and emission at 665 nm. Dotmatics Studies (Bishop's Stortford, UK) was utilized to generate all dose-response curves and calculate EC50s and are shown in Table 2.
In general terms: Time-resolved FRET reads energy transfer from a long-lived donor to a nearby acceptor.

In assay [2] the target is His tagged PTPN2 (TC45) protein (Homo sapiens (Human), UniProt P17706). Briefly: PTPN2 Mobility Shift Assay (MSA). It counts as biochemical. The conditions noted are these: for Dihydrobenzofuran or Indoline x-fold>potency biochemical: x-fold versus corresponding chromane comparator, PTPN2 MSA. The method, then: Example III-1: Mobility Shift Assay (MSA) Used to Determine Potency of PTPN2 Inhibitors
His tagged PTPN2 (TC45) protein, sequence (P17706 other isoform, or with tags, fused parts or gaps): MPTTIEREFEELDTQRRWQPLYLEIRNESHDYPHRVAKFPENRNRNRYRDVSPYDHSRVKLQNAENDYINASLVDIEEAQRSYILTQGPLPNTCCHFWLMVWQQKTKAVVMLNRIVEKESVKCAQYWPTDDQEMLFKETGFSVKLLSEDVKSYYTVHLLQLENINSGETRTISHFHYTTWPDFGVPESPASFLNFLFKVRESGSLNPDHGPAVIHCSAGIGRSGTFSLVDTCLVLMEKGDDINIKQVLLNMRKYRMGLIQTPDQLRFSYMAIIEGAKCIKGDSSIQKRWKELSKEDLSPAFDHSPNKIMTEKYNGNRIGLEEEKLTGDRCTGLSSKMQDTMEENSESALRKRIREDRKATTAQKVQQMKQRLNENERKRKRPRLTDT
Compound activity was determined using in house His tagged PTPN2 (TC45) protein (SEQ ID NO: 1) in an in vitro enzymatic reaction. The enzymatic assay used to determine activity was a mobility shift assay using a LabChip EZ Reader by Caliper Life Sciences. The enzymatic reaction was carried out in assay buffer (50 mM HEPES pH 7.5, 1 mM EGTA, 10 mM EDTA, 0.01% Tween® 20, and 2 mM DTT). The compounds were dispensed on a white 384 well ProxiPlate™ (PerkinElmer Catalog #6008289) plate using the Labcyte Echo at varying concentrations (12 point, 1:3 dilution). The enzyme (at 0.5 nM) was incubated with compound for 10 minutes at room temperature. Thereafter, the substrate (phosphorylated insulin receptor probe sequence: ((OG488)-(NH—CH2—CH2—O—CH2—CH2—O—CH2—CO)-T-R-D-I—(PY)-E-T-D-Y—Y—R—K—K—NH2) (SEQ ID NO: 2) was added at 2 μM to the plates and incubated for another 10 minutes at room temperature. Finally, a quench solution (water and 4-bromo-3-(2-oxo-2-propoxyethoxy)-5-(3-{[1-(phenylmethanesulfonyl)piperidin-4-yl]amino}phenyl)thiophene-2-carboxylic acid) was added to the plates, which were then run on the EZ Reader (excitation 488 nm, emission 530 nm) to measure % conversion (the amount of phosphorylated substrate which was de-phosphorylated by PTPN2). […] The % inhibition was then used to calculate the IC50 values.

Assay [3] deals with His tagged full-length PTPN1 protein (Homo sapiens (Human), UniProt P18031). Put plainly: PTPN1 Mobility Shift Assay (MSA). The conditions noted are these: enzyme 0.5 nM, substrate 2 μM. It counts as biochemical. The procedure:
Example III-2: Mobility Shift Assay (MSA) Used to Determine Potency of PTPN1 Inhibitors
Compound activity was determined using in house His tagged full-length PTPN1 protein (SEQ ID NO: 3) in an in vitro enzymatic reaction. The enzymatic assay used to determine activity is a mobility shift assay using a LabChip EZ Reader by Caliper Life Sciences. The enzymatic reaction was carried out in assay buffer (50 mM HEPES pH 7.5, 1 mM EGTA, 10 mM EDTA, 0.01% Tween® 20, and 2 mM DTT). The compounds were dispensed on a white 384 well ProxiPlate™ (PerkinElmer Cat ^#6008289) plate using a Labcyte Echo® liquid handler at varying concentrations (12 point, 1:3 dilution). The enzyme (at 0.5 nM) was incubated with compound for 10 minutes at room temperature. Thereafter, the substrate (phosphorylated insulin receptor probe sequence: ((OG488)-(NH—CH2—CH2—O—CH2—CH2—O—CH2—CO)-T-R-D-I—(PY)-E-T-D-Y—Y—R—K—K—NH2) (SEQ ID NO: 2) was added at 2 μM to the plates and incubated for another 10 minutes at room temperature. Finally, a quench solution (water and 4-bromo-3-(2-oxo-2-propoxyethoxy)-5-(3-{[1-(phenylmethanesulfonyl)piperidin-4-yl]amino}phenyl)thiophene-2-carboxylic acid) was added to the plates, which were then run on the EZ Reader (excitation 488 nm, emission 530 nm) to measure % conversion (the amount of phosphorylated substrate which was de-phosphorylated by PTPN1). […] The % inhibition was then used to calculate the IC50 values.

Where [4] appears, read: 3 hours compound, 100 nM mouse IFNγ 10 minutes, read-out: B16F10 IFNγ Induced pSTAT1 EC50.
The mark [5] stands for this setting: Mus musculus, Table 3, dihydrobenzofuran or indoline compound (X = O or NH), read-out: pSTAT1 EC50.
The mark [6] stands for this setting: Table 3, dihydrobenzofuran or indoline compound (X = O or NH).

His tagged full-length PTPN1 protein, sequence (P18031 whole entry): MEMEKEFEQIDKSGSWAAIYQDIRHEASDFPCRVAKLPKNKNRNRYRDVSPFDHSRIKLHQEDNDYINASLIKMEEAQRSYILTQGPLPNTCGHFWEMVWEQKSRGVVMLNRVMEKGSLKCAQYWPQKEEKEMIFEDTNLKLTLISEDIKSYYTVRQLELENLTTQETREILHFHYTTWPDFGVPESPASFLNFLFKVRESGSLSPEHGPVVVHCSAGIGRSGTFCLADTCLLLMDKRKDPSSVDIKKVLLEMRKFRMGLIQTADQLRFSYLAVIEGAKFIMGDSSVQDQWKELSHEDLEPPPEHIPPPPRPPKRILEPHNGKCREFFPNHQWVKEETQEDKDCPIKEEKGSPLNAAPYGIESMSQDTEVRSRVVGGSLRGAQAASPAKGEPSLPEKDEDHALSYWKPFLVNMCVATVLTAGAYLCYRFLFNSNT

Turning to `O=C1CN(c2c(O)cc3c(c2F)C[C@H](CNCCC2CCOC2)O3)S(=O)(=O)N1` (stereo partly drawn) [Compound 108, 5-[(2R)-4-fluoro-6-hydroxy-2-({[2-(oxolan-3-yl)ethyl]amino}methyl)-2,3-dihydro-1-benzofuran-5-yl]-1λ^6,2,5-thiadiazolidine-1,1,3-trione], the EC50 in assay [1] (setting [4]) and in assay [1] (setting [5]) was 1910 nM in each case. The “Dihydrobenzofuran or Indoline x-fold>potency cellular” value in assay [1] is recorded as 11.8. For the same molecule, the IC50 is 15.8 nM in assay [2] (setting [6]); 10 to 100 nM in assay [2] (enzyme 0.5 nM, substrate 2 μM); 10 to 100 nM in assay [3]. For the same molecule, the “Dihydrobenzofuran or Indoline x-fold>potency biochemical” value in assay [2] worked out at 2.3.
Turning to `CC(C)CNCC1Cc2c(cc(O)c(N3CC(=O)NS3(=O)=O)c2F)O1` (centres unmarked) [Compound 102, 5-(4-fluoro-6-hydroxy-2-{[(2-methylpropyl)amino]methyl}-2,3-dihydro-1-benzofuran-5-yl)-1λ^6,2,5-thiadiazolidine-1,1,3-trione], the EC50 in assay [1] (setting [4]) was 3420 nM. In addition, the IC50 in assay [2] (enzyme 0.5 nM, substrate 2 μM) lay in the range of 10 to 100 nM; in assay [3] it was 10 to 100 nM.
Consider `CC(C)CNC[C@H]1Cc2c(cc(O)c(N3CC(=O)NS3(=O)=O)c2F)N1` [Compound 133, 5-[(2R)-4-fluoro-6-hydroxy-2-{[(2-methylpropyl)amino]methyl}-2,3-dihydro-1H-indol-5-yl]-1λ^6,2,5-thiadiazolidine-1,1,3-trione], for which the EC50 in assay [1] (setting [4]) was determined as 1240 nM. Besides, the IC50 is 10 to 100 nM in assay [2] (enzyme 0.5 nM, substrate 2 μM) and 10 to 100 nM in assay [3].
As to `O=C1CN(c2c(O)cc3c(c2F)C[C@H](CNCCC2CC(F)(F)C2)O3)S(=O)(=O)N1` [Compound 106, 5-[(2R)-2-({[2-(3,3-difluorocyclobutyl)ethyl]amino}methyl)-4-fluoro-6-hydroxy-2,3-dihydro-1-benzofuran-5-yl]-1λ^6,2,5-thiadiazolidine-1,1,3-trione], the EC50 in assay [1] (setting [4]) came to 1860 nM. For the same molecule, the IC50 was below 10 nM in assay [2] (enzyme 0.5 nM, substrate 2 μM) and 10 to 100 nM in assay [3].
Taken in the same sequence, the figures for `CC(C)CNC[C@H]1Cc2c(cc(O)c(N3CC(=O)NS3(=O)=O)c2F)O1` [Compound 100, 5-[(2R)-4-fluoro-6-hydroxy-2-{[(2-methylpropyl)amino]methyl}-2,3-dihydro-1-benzofuran-5-yl]-1λ^6,2,5-thiadiazolidine-1,1,3-trione] were 853 nM, below 10 nM and 10 to 100 nM.
In the case of `CC[C@@H](C)NC[C@H]1Cc2c(cc(O)c(N3CC(=O)NS3(=O)=O)c2F)N1` [Compound 149, 5-[(2R)-2-({[(2R)-butan-2-yl]amino}methyl)-4-fluoro-6-hydroxy-2,3-dihydro-1H-indol-5-yl]-1λ^6,2,5-thiadiazolidine-1,1,3-trione], the EC50 in assay [1] (setting [4]) is 1560 nM. Besides, the IC50 in assay [2] (enzyme 0.5 nM, substrate 2 μM) is below 10 nM; in assay [3], 10 to 100 nM.
`O=C1CN(c2c(O)cc3c(c2F)C[C@H](CNCC2C4CCCC42)O3)S(=O)(=O)N1` (mixture of isomers) [Compound 126, 5-{(2R)-2-[({[(1RS,5SR)-bicyclo[3.1.0]hexan-6-yl]methyl}amino)methyl]-4-fluoro-6-hydroxy-2,3-dihydro-1-benzofuran-5-yl}-1λ^6,2,5-thiadiazolidine-1,1,3-trione]: the EC50 in assay [1] (setting [4]) and in assay [1] (setting [5]) was 3670 nM in each case. The “Dihydrobenzofuran or Indoline x-fold>potency cellular” value in assay [1] was above 13.6. Also, the IC50 in assay [2] (setting [6]) was 6.06 nM; in assay [2] (enzyme 0.5 nM, substrate 2 μM), below 10 nM; in assay [3] it was 10 to 100 nM. Also, in assay [2], the “Dihydrobenzofuran or Indoline x-fold>potency biochemical” value came to 5.3.
With `CC(C)CNC[C@@H]1Cc2c(cc(O)c(N3CC(=O)NS3(=O)=O)c2F)N1` [Compound 132, 5-[(2S)-4-fluoro-6-hydroxy-2-{[(2-methylpropyl)amino]methyl}-2,3-dihydro-1H-indol-5-yl]-1λ^6,2,5-thiadiazolidine-1,1,3-trione], the EC50 in assay [1] (setting [4]) came out at 4690 nM. The IC50 in assay [2] (enzyme 0.5 nM, substrate 2 μM) is 10 to 100 nM; in assay [3], above 100 nM.
Consider `O=C1CN(c2c(O)cc3c(c2F)C[C@H](CNCC2CCC2)O3)S(=O)(=O)N1` [Compound 119, 5-[(2R)-2-{[(cyclobutylmethyl)amino]methyl}-4-fluoro-6-hydroxy-2,3-dihydro-1-benzofuran-5-yl]-1λ^6,2,5-thiadiazolidine-1,1,3-trione], for which the EC50 in assay [1] (setting [4]) worked out at 848 nM. In addition, the IC50 fell in the range of 10 to 100 nM in assay [2] (enzyme 0.5 nM, substrate 2 μM) and 10 to 100 nM in assay [3].
As to `CCC(CC)CNC[C@H]1Cc2c(cc(O)c(N3CC(=O)NS3(=O)=O)c2F)N1` [Compound 134, 5-[(2R)-2-{[(2-ethylbutyl)amino]methyl}-4-fluoro-6-hydroxy-2,3-dihydro-1H-indol-5-yl]-1λ^6,2,5-thiadiazolidine-1,1,3-trione], the EC50 in assay [1] (setting [4]) was 947 nM. For the same molecule, the IC50 in assay [2] (enzyme 0.5 nM, substrate 2 μM) was in the range of 10 to 100 nM; in assay [3], 10 to 100 nM.
Regarding `O=C1CN(c2c(O)cc3c(c2F)C[C@H](CNCCC2CC2)N3)S(=O)(=O)N1` [Compound 152, 5-[(2R)-2-{[(2-cyclopropylethyl)amino]methyl}-4-fluoro-6-hydroxy-2,3-dihydro-1H-indol-5-yl]-1λ^6,2,5-thiadiazolidine-1,1,3-trione], in assay [1] (setting [4]), the EC50 was determined as 1170 nM. In addition, the IC50 is 10 to 100 nM in assay [2] (enzyme 0.5 nM, substrate 2 μM) and 10 to 100 nM in assay [3].
Turning to `O=C1CN(c2c(O)cc3c(c2F)C[C@H](CO)N3)S(=O)(=O)N1` [Compound 151, 5-[(2R)-4-fluoro-6-hydroxy-2-(hydroxymethyl)-2,3-dihydro-1H-indol-5-yl]-1λ^6,2,5-thiadiazolidine-1,1,3-trione], the EC50 in assay [1] (setting [4]) amounted to 2770 nM. Further, the IC50 in assay [2] (enzyme 0.5 nM, substrate 2 μM) is 10 to 100 nM; in assay [3], 10 to 100 nM.
On to `CCC(C)CNC[C@H]1Cc2c(cc(O)c(N3CC(=O)NS3(=O)=O)c2F)N1` (stereo partly drawn) [Compound 142, 5-[(2R)-4-fluoro-6-hydroxy-2-{[(2-methylbutyl)amino]methyl}-2,3-dihydro-1H-indol-5-yl]-1λ^6,2,5-thiadiazolidine-1,1,3-trione], for which the EC50 in assay [1] (setting [4]) was 1140 nM. In addition, the IC50 is 10 to 100 nM in assay [2] (enzyme 0.5 nM, substrate 2 μM) and 10 to 100 nM in assay [3].
